Data set [1] addresses Nicotinic Acetylcholine α4β2 Receptor (UniProt P09483+P12390). The experiment in a line: Binding assay for human or rat nicotinic acetylcholine α4β2 receptor ([3H]Cytisine displacement). The following applies: [3H]Cytisine 2.5 nM, rat brain frontal cortex or recombinant human receptor in CHO cells (not specified which). As to the method:
Binding Assay for Human or Rat Nicotinic Acetylcholine α4β2 Receptor
• Receptor source: Rat brain frontal cortex or recombinant human cDNA expressed in CHO cells • Radioligand: [^3H]Cytisine 15-40 Ci/mmole • Final ligand concentration—[2.5 nM] • Non-specific determinant: Epibatidine—[0.1 μM] • Reference compound: Epibatidine • Positive control: Epibatidine Incubation Conditions:
Increasing concentrations of test compounds or standard were incubated with membrane receptors and radioligand in 120 mM NaCl, 2.5 mM KCl, 1 mM CaCl2, 1 mM MgCl2 and 50 mM TRIS-HCl (pH 7.4) for 60 minutes at room temperature. The reaction was terminated by rapid vacuum filtration onto the glass fiber filters. Radioactivity trapped onto the filters was determined and compared to the control values in order to ascertain any interactions of the test compound(s) with either cloned human or rat receptor binding site.
Literature Reference: Bunnelle W. H., Daanen J. F., Ryther K. B., Schrimpf M. R., Dart M. J., Gelain A., Meyer M. D., Frost J. M., Anderson D. J., Buckley M., Curzon P., Cao Y-J., Puttfarcken P., Searle X., Ji J., Putman C. B., Surowy C., Toma L. and Barlocco D. Structure-Activity Studies and Analgesic Efficacy of N-(3-Pyridinyl)-Bridged Bicyclic Diamines, Exceptionally Potent Agonists at Nicotinic Acetylcholine Receptors. J. Med. Chem. 2007, 50, […].

Data set [2] concerns Male Wister rats. Description: Acute food intake study (animal model of hyperphagia). The class given is in vivo, rat. The settings on record: oral. On the procedure:
The appetite suppressing properties of compounds of this invention were studied using an animal model of hyperphagia.
Male Wister rats (200-210 grams) obtained from Raj Biotech, India were used as experimental animals. The experiment consisted of 6 days. The rats were adapted to the 18 hour fasting and 6 hour feeding pattern. The animals were housed in a group of three in the cages provided with the fasting grills and were fasted for 18 hours. After 18 hour fasting the rats were separated and placed individually in a cage. Weighed amount of feed was provided to rats for 6 hour and the feed intake at 1, 2, 4 and 6 hours was recorded. Again the rats were regrouped and fasted for 18 hour. The above procedure was followed for 5 days. The average cumulative food intake by the rats on the last 3 days was calculated. Animals were randomised on the basis of their last three days food intake.
One group of 8 rats received vehicle (2 mL/Kg) orally and another set of animals received compound of the formula (I) orally. Then the rats were given access to food and the food intake at 1, 2, 4 and 6 hours was recorded. The food intake by the rats treated with test compound was compared with the vehicle treated group by using students‘t’ test.

Data set [3] in a line: Rodent pharmacokinetic study. Format: in vivo. The following applies: Wistar, Wister rat/Male. As to the method: Rodent Pharmacokinetic Study
Three to five animals were housed in each cage. Animals were kept fasted over night and maintained on a 12 hours light/dark cycle. Three rats were dosed NCE orally (15 or 5 mg/kg) and intravenously (5 mg/kg) on day 0 and day 2
At each time point blood was collected by jugular vein. Plasma was stored frozen at −20° C. until analysis. The concentrations of the NCE compound in plasma were determined using LC-MS/MS method. Schedule time points: Pre dose 0.25, 0.5, 1, 1.5, 2, 3, 4, 6, 8, 10, 12 and 24 hours after dosing (n=3).
Pharmacokinetic parameters Cmax, Tmax, AUCt, T1/2 and Bioavailability were calculated by non-compartmental model using software WinNonlin version 5.0.1.

The nature of data set [4]: Rodent brain penetration study. The following applies: male, Wistar, rat, brain homogenate and plasma, po, 5 mg/kg.
Description: Rodent Brain Penetration Study
(§1) Three animals were housed in each cage. Animals were given water and food ad libitum throughout the experiment, and maintained on a 12 hours light/dark cycle.
(§2) NCE compound was dissolved in water and administered orally. At Tmax (0.5, 1.0 and 2.0) animals were sacrificed to collect the plasma and brain tissue and were homogenized. Plasma and Brain was stored frozen at −20° C. until analysis. The concentrations of the NCE compound in plasma and Brain were determined using LC-MS/MS method.
(§3) The NCE compounds were quantified in plasma and brain homogenate by validated LC-MS/MS method using solid phase extraction technique. NCE compounds were quantified in the calibration range of 1-500 ng/mL in plasma and brain homogenate. Study samples were analyzed using calibration samples in the batch and quality control samples spread across the batch. Extents of brain-blood ratio were calculated (Cb/Cp).
Data set [5] addresses T1, recombinant human α4β2 nicotinic acetylcholine receptor (Homo sapiens, UniProt P17787+P43681).
T1 construct: expressed in transfected cells
Description: Determination of IC50 and Kb values, aequorin luminescence (intracellular calcium) assay in CHO cells. Format: cell-based. The settings on record: antagonist mode vs epibatidine. On the procedure:
Determination of IC50 and Kb Values for Nicotinic Acetylcholine α4β2 Receptor Ligands
A stable CHO cell line expressing recombinant human α4β2 nicotinic acetylcholine receptor transiently expressing aequorin protein was used for cell-based assay. The assay offers a non-radioactive based approach to determine binding of a compound to ligand gated ion channels. In this specific assay, the level of intracellular calcium, which is modulated by activation or inhibition of the channel is measured. Both the channel and aequorin genes are expressed at high level under the control of powerful CMV promotor.
The above cells were grown in 96 well clear bottom white plates in Hams F12 medium containing 10% fetal bovine serum (FBS). Prior to the addition of compounds and/or agonist, cells were serum starved for six hours. Coelentarazine (a prosthetic group for aequorin protein) was added in the medium containing 0.1% dialyzed serum and incubated overnight at 27° C. Cells were washed with assay buffer and increasing concentration of the test compound or standard were added to the plate for antagonist mode. A fixed concentration of the agonist (eipbatidine) was injected into the plate and luminescence was measured for 10 seconds. For evaluation of the compound in agonist mode, increasing concentration of the standard or test compound were injected and the luminescence was measured. Luminescence units were plotted against the compound concentrations using Graphpad software. IC50 values of the compounds were defined as the concentration required in reducing the luminescent units by 50%. The Kb values were calculated by feeding the concentration of the agonist used in the assay and its EC50 value in the same software.
Literature References: Karadsheh M. S., Shah M. S., Tang X., Macdonald R. L. and Stitzel J. A. Functional characterization of mouse α4β2 nicotinic acetylcholine receptors stably expressed in HEK293T cells. J. Neurochem. 2004, 91, 1138-1150.
Background: Calcium flux is commonly read through the fluorescence of an indicator in the cells.

Data set [6] in a line: in vivo. The settings on record: male, Wistar, rat, po, 15 mg/kg.
Description: Rodent Brain Penetration Study
as §1, §2, §3
Where [7] appears, read: plasma, 5 mg/kg Per-Oral vs 5 mg/kg Intravenous.

Where a name gives a salt, the structure may show the parent alone. Read-outs that look alike come from different tables or passages of the source.

T1 sequence (P43681 29-627 limits assumed): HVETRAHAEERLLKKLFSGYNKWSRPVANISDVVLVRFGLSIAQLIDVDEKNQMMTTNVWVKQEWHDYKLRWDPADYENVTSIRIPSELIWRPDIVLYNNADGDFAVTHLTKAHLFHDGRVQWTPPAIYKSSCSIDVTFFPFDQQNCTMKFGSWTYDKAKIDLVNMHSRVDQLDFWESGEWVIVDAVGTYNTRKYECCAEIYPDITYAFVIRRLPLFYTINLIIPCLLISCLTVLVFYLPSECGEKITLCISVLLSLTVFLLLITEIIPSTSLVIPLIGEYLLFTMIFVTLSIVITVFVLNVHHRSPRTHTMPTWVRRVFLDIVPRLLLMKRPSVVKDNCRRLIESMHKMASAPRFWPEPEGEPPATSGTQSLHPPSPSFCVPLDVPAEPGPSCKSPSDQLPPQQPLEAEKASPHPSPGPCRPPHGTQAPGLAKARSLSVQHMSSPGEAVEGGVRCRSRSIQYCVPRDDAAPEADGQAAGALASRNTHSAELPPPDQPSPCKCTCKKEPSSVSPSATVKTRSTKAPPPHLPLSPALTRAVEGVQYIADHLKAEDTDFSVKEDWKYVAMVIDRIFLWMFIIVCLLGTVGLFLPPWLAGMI
T1 sequence (P17787 26-502): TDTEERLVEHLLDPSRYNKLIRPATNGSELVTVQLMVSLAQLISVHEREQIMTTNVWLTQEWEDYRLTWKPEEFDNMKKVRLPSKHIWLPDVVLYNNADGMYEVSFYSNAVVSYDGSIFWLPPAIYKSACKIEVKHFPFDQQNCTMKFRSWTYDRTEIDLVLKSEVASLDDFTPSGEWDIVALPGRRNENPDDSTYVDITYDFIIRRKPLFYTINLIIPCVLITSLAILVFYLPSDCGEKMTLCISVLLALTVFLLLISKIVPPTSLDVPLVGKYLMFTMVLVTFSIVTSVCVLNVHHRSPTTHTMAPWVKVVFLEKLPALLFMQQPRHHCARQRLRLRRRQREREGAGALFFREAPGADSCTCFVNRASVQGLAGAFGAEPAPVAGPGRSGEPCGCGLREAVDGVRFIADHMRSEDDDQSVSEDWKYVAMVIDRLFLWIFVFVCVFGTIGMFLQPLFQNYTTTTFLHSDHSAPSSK

Broadly, the Ki is a dissociation constant, usually derived from enzyme kinetics or from competition with a known ligand. For orientation: AUC(0-t) means the area under the concentration-time curve up to a stated or last time point. The term Cmax denotes the maximum level reached in the sampled fluid or tissue. As a reminder, the Tmax is the time at which the peak concentration occurs. As usually defined, the half-life is the time in which the quantity being followed falls by half. Low values mean fast loss, high ones slow loss. As to `NCC1CC2CC2N1c1cccnc1` (centres unmarked) [Example 18, [2-(Pyridin-3-yl)-2-azabicyclo[3.1.0]hex-3-yl] methylamine fumarate], in data set [1], the Ki worked out at 6.4 nM. Besides, in data set [2], the Inference result is “Active”. In addition, the “% Suppression of food intake compared to vehicle, 1 Hour” value in data set [2] (1 Hour, 18 hour fasted rats) came out at 36.80%. Besides, in data set [2] (2 Hour, 18 hour fasted rats), the “% Suppression of food intake compared to vehicle, 2 Hour” value stood at 33.05%. For the same molecule, the “% Suppression of food intake compared to vehicle, 4 Hour” value in data set [2] (4 Hour, 18 hour fasted rats) was 30.02%. The “% Suppression of food intake compared to vehicle, 6 Hour” value in data set [2] (6 Hour, 18 hour fasted rats) worked out at 25.38%. In data set [3] (in vivo, 5 mg/kg Per-Oral vs 5 mg/kg Intravenous), the bioavailability turned out to be 87 ± 24%. In data set [3] (in vivo, 5 mg/kg, Intravenous), the AUC(0-t) was 1760 ± 228 ng·h/mL, the peak level (Cmax) was 701 ± 213 ng/mL, the Tmax is 22.8 ± 8.4 min and the half-life is 85.8 ± 6.6 min. In addition, in data set [3] (in vivo, 5 mg/kg, Per-Oral), the AUC(0-t) was determined as 1540 ± 165 ng·h/mL, the peak level (Cmax) was 355 ± 53 ng/mL, the Tmax stood at 4.8 min and the half-life was 105 ± 24 min. The same molecule gave a Kp in data set [4] of 3.52 ± 0.13.
As a reminder, the Kb is the equilibrium dissociation constant of an antagonist, usually derived from a functional assay. Consider `Brc1cncc(N2C(CN3CCNCC3)CC3CC32)c1` (centres unmarked) [Example 9, 2-(5-Bromopyridin-3-yl)-3-(piperazin-1-ylmethyl)-2-aza-bicyclo[3.1.0]hexane], for which the Kb in data set [5] (Kb) turned out to be 73.1 nM.
Take `CNCC1CC2CC2N1c1cncc(Br)c1` (centres unmarked) [Example 11, N-[2-(5-Bromopyridin-3-yl)-2-azabicyclo[3.1.0]hex-3-ylmethyl]methylamine]: in data set [1] (read-out: Ki), the Ki is 46.4 nM. In data set [6], this molecule displayed a Kp of 8.75 ± 1.59. Further, in data set [3] (in vivo, 5 mg/kg, Intravenous), the AUC(0-t) was found to be 2540 ± 1300 ng·h/mL, the Cmax was determined as 1440 ± 330 ng/mL, the Tmax came to 4.8 min and the half-life was 87 ± 31.8 min. In addition, the bioavailability in data set [3] (in vivo, 15 mg/kg Per-Oral vs 5 mg/kg Intravenous) worked out at 59 ± 31%. Moreover, in data set [3] (in vivo, 15 mg/kg, Per-Oral), the area under the curve AUC(0-t) was 3880 ± 846 ng·h/mL, the Cmax is 1990 ± 435 ng/mL, the Tmax stood at 18.6 ± 7.8 min and the half-life is 115 ± 72 min.
`CN(C)CC1CC2CC2N1c1cncc(Br)c1.Cl` (centres unmarked) [Example 1, N-[2-(5-Bromopyridin-3-yl)-2-azabicyclo[3.1.0]hex-3-ylmethyl]-dimethylamine hydrochloride]: in data set [1] (read-out: Ki), the Ki turned out to be 23 nM. In data set [3] (plasma, 5 mg/kg, Intravenous), the AUC(0-t) amounted to 901 ± 47 ng·h/mL, the Cmax was found to be 1940 ± 260 ng/mL, the Tmax was determined as 8.4 ± 6 min and the half-life is 59.4 ± 15 min. For the same molecule, the bioavailability in data set [3] (plasma, 15 mg/kg Per-Oral vs 5 mg/kg Intravenous) came to 10 ± 5%. Besides, in data set [3] (plasma, 15 mg/kg, Per-Oral), the AUC(0-t) turned out to be 273 ± 160 ng·h/mL, the peak level (Cmax) was 219 ± 120 ng/mL, the Tmax was 15 min and the half-life is 34.8 ± 7.8 min. In addition, in data set [5] (read-out: Kb), the Kb is 1.4 nM.
With `Brc1cncc(N2C(CN3CCNCC3)CC3CC32)c1` (centres unmarked) [Example 8, 2-(5-Bromopyridin-3-yl)-3-(piperazin-1-ylmethyl)-2-azabicyclo[3.1.0]hexane], in data set [1] (read-out: Ki), the Ki turned out to be 610 nM. Further, the Kb in data set [5] (Kb) came to 4.6 nM.
Regarding `CN(C)CC1CC2CC2N1c1cccnc1` (centres unmarked) [Example 10, N-[2-(Pyridin-3-yl)-2-azabicyclo[3.1.0]hex-3-ylmethyl]dimethylamine], in data set [1] (read-out: Ki), the Ki is 77 nM. Moreover, the antagonist dissociation constant (Kb) in data set [5] (read-out: Kb) was 3.4 nM.
Take `CNCC1CC2CC2N1c1ccc(C(F)(F)F)nc1.O=C(O)/C=C/C(=O)O` (centres unmarked) [Example 23, N-(2-(2-trifluoromethylpyridin-5-yl)-2-azabicyclo[3.1.0]hex-3-ylmethyl) methyl amine fumarate]: the Ki in data set [1] (read-out: Ki) is 2 nM. For the same molecule, the bioavailability in data set [3] (setting [7]) turned out to be 67 ± 9%. In data set [3] (plasma, 5 mg/kg, Intravenous), the AUC(0-t) is 18000 ± 3300 ng·h/mL, the Cmax is 3640 ± 89 ng/mL, the Tmax came to 4.8 min and the half-life was 415 ± 145 min. For the same molecule, in data set [3] (plasma, 5 mg/kg, Per-Oral), the AUC(0-t) is 12000 ± 1740 ng·h/mL, the Cmax is 2310 ± 163 ng/mL, the Tmax was determined as 19.8 ± 8.4 min and the half-life is 307 ± 11.4 min. The molecule also displayed a Kp in data set [4] of 1.97 ± 0.08.
For `CNCC1CC2CC2N1c1cncnc1.O=C(O)/C=C/C(=O)O` (centres unmarked) [Example 21, N-(2-(pyrimidin-5-yl)-2-azabicyclo[3.1.0]hex-3-ylmethyl)methyl amine fumarate], the Ki in data set [1] (read-out: Ki) is 465 nM. Further, the bioavailability in data set [3] (setting [7]) came out at 101 ± 20%. Moreover, in data set [3] (plasma, 5 mg/kg, Intravenous), the AUC(0-t) was 2030 ± 525 ng·h/mL, the highest level (Cmax) was 1570 ± 261 ng/mL, the Tmax is 4.8 min and the half-life was 85.8 ± 10.8 min. In addition, in data set [3] (plasma, 5 mg/kg, Per-Oral), the area under the curve AUC(0-t) turned out to be 1970 ± 100 ng·h/mL, the Cmax worked out at 685 ± 107 ng/mL, the time of peak concentration (Tmax) was 37.8 ± 15 min and the half-life is 78 ± 22.2 min. In data set [4], this molecule displayed a Kp of 1.74 ± 0.27.

The values are drawn from patent publication US8653071B2, “α4β2 neuronal nicotinic acetylcholine receptor ligands” (Suven Life Sciences Limited, priority 2009, dated 2014).
